According to patent publication US9340492B2, “Meta-Diarylaniline or meta-diarylpyridinamine compound, preparation method and medical uses thereof” (INSTITUTE OF PHARMACOLOGY AND TOXICOLOGY ACADEMY OF …, priority 2012, dated 2016):
In brackets after ≈: the same amount, converted by molar mass. Where two headings read alike, the source gives them in different places.

How the values were obtained:
[1] = system: NL4-3 virus (HIV, wild-type); assay: Anti-HIV activity assay (TZM-bl cell model), NL4-3 wild-type; type: cell-based; conditions: human, TZM-bl cells infected with HIV-1 NL4-3 virus; CC50 (TZM-bl) / EC50 (NL4-3); read-out: SI, selective index, ratio of toxic CC50 value to active EC50 value
Experimental: (§1) The assay was carried out by reference to the document (Dang, Z, et al. J. Med. Chem. 2009, 52, 7887-7891). In particular, in a 96-well cell culture plate, solutions of the compounds to be tested at different concentrations were mixed with TZM-bl cells (from National Institutes of Health (NIH)) infected with 200 TCID50 NL4-3 virus, respectively. 2 days later, the culture medium was removed, 100 μl of Bright Glo reagent was added to each well, and Victor 2 luminometer was used to detect the […] of the cells.

NL4-3 virus = assay: as above; type: cell-based; conditions: read-out: EC50, concentration effective to inhibit the replication of half of viruses
Experimental: as §1

[2] = TZM-bl cytotoxicity assay (XTT); type: cell-based; conditions: human, TZM-bl cells, read-out: CC50, concentration effective to inhibit the growth of half of cells
Experimental: The assay was carried out by reference to the document (Dang, Z, et al. J. Med. Chem. 2009, 52, 7887-7891). In particular, in a 96-well cell culture plate, solutions of Compounds 1-57 at different concentrations (100 μl) were mixed with an equivalent volume of TZM-bl cells (from National Institutes of Health (NIH)) (5×10^5/mL), and were incubated at 37° C. for 4 d. 50 μl of freshly prepared XTT solution (1 mg/mL) containing 0.02 μM PMS was added. Optical density at 450 nm was measured 4 h later.

[3] = system: K101E drug-resistant virus; assay: Activity against drug-resistant virus K101E; type: cell-based, HIV; conditions: Human immunodeficiency virus 1, read-out: Drug-resistant viruses EC50, K101E
[4] = Water-solubility at pH2.0; type: physicochemical; conditions: aqueous medium (water) at pH 2.0, pH 2, simulated gastric fluid
[5] = Incubation experiment of human liver microsomes; type: in vitro ADME
[6] = Human immunodeficiency virus 1, NL43, NL4-3 HIV wild-type, TZM-bl cells

SMILES	melting point	EC50 (NL4-3 virus; [6])	selectivity ratio at 2 days [1]	CC50 at 4 d [2]	also measured
Cc1cc(/C=C/C#N)cc(C)c1Oc1cc(Nc2ccc(C#N)cc2)c([N+](=O)[O-])cc1C(F)(F)F [Compound 1, 5-(4″-cyanovinyl-2″,6″-dimethylphenoxy)-N^1-(4′-cyanophenyl)-4-trifluoromethyl-2-nitroaniline]	248 to 250 °C	–	–	–	–
COC(=O)c1cc([N+](=O)[O-])c(Nc2ccc(C#N)cc2)cc1Oc1c(C)cc(/C=C/C#N)cc1C [Compound 3, 5-(4″-cyanovinyl-2″,6″-dimethylphenoxy)-N^1-(4′-cyanophenyl)-4-methoxycarbonyl-2-nitroaniline]	260 to 262 °C	–	–	–	–
Cc1cc(/C=C/C#N)cc(C)c1Oc1cc(Nc2ccc(C#N)cc2)c([N+](=O)[O-])cc1CO [Compound 5, N^1-(4′-cyanophenyl)-5-(4″-cyanovinyl-2″,6″-dimethylphenoxy)-4-hydroxymethyl-2-nitroaniline]	232 to 234 °C	–	–	–	–
Cc1cc(/C=C/C#N)cc(C)c1Oc1cc(Nc2ccc(C#N)cc2)c([N+](=O)[O-])cc1C(=O)O [Compound 7, 4-carboxyl-5-(4″-cyanovinyl-2″,6″-dimethylphenoxy)-N^1-(4′-cyanophenyl)-2-nitroaniline]	262 to 265 °C	–	–	–	–
Cc1cc(/C=C/C#N)cc(C)c1Oc1cc(Nc2ccc(C#N)cc2)c([N+](=O)[O-])cc1C(N)=O [Compound 9]	278 to 280 °C	–	–	–	–
CNC(=O)c1cc([N+](=O)[O-])c(Nc2ccc(C#N)cc2)cc1Oc1c(C)cc(/C=C/C#N)cc1C [Compound 11, N^1-(4′-cyanophenyl)-5-(4″-cyanovinyl-2″,6″-dimethylphenoxy)-4-(N-methylacylamino)-2-nitroaniline]	218 to 220 °C	–	–	–	–
CNC(=O)c1cc(N)c(Nc2ccc(C#N)cc2)cc1Oc1c(C)cc(CCC#N)cc1C [Compound 12, 5-(4″-cyanoethyl-2″,6″-dimethylphenoxy)-N^1-(4′-cyanophenyl)-4-(N-methyl-carbamoyl)-1,2-phenylenediamine]	–	–	> 3330	> 9100 nM	EC50 (NL4-3 virus; Human immunodeficiency virus 1, NL43, TZM-bl): 2.73 nM; EC50 [3]: 14 nM; solubility [4]: 8.28 µg/mL (≈ 18.8 µM); HLM t1/2 [5]: 55.7 min
Cc1cc(/C=C/C#N)cc(C)c1Oc1cc(Nc2ccc(C#N)cc2)c([N+](=O)[O-])cc1S(N)(=O)=O [Compound 13, N-(4′-cyanophenyl)-5-(4″-cyanovinyl-2″,6″-dimethylphenoxy)-4-aminosulfonyl-2-nitroaniline]	198 to 200 °C	–	–	–	–
Cc1cc(CO)cc(C)c1Oc1cc(Nc2ccc(C#N)cc2)c([N+](=O)[O-])cc1CO [Compound 17, N-(4′-cyanophenyl)-5-(4″-hydroxymethyl-2″,6″-dimethylphenoxy)-4-hydroxymethyl-2-nitroaniline]	216 to 218 °C	–	–	–	–
CC(=O)/C=C/c1cc(F)c(Oc2ccc([N+](=O)[O-])c(Nc3ccc(C#N)cc3)n2)c(F)c1 [Compound 29, N^2-(4-cyanoanilinyl)-6-(2,6-difluoro-4-((E)-1-methyleneacetonyl)phenoxy)-3-nitropyridine]	275 to 277 °C	–	–	–	–
Cc1cc(CCC#N)cc(C)c1Oc1cc(Nc2ccc(C#N)cc2)c(N)cc1C(=O)NN [Compound 36, 5-(4″-cyanoethyl-2″,6″-dimethylphenoxy)-N^1-(4′-cyanophenyl)-4-formhydrazide-1,2-phenylenediamine]	–	19.1 nM	> 1190	> 22700 nM	–
CC(=O)OCc1cc(N)c(Nc2ccc(C#N)cc2)cc1Oc1c(C)cc(CCC#N)cc1C [Compound 37, 4-acetyloxymethyl-N^1-(4′-cyanophenyl)-5-(4″-cyanoethyl-2″,6″-dimethylphenoxy)-1,2-phenylenediamine]	–	3.29 nM	> 1520	> 5000 nM	–
Cc1cc(CCC#N)cc(C)c1Oc1cc(Nc2ccc(C#N)cc2)c(N)cc1COC(=O)C1CC1 [Compound 39, N^1-(4′-cyanophenyl)-5-(4″-cyanoethyl-2″,6″-dimethylphenoxy)-4-cyclopropionyloxymethyl-1,2-phenylenediamine]	–	1.63 nM	> 3070	> 5000 nM	–
Cc1cc(CCC#N)cc(C)c1Oc1cc(Nc2ccc(C#N)cc2)c(N)cc1C(=O)N(C)C [Compound 42, N^1-(4′-cyanophenyl)-5-(4″-cyanoethyl-2″,6″-dimethylphenoxy)-4-[N,N-dimethylformamido]-1,2-phenylenediamine]	–	6.17 nM	> 810	> 5000 nM	–
Cc1cc(CCC#N)cc(C)c1Oc1cc(Nc2ccc(C#N)cc2)c(N)cc1C(=O)NC1CC1 [Compound 43, N^1-(4′-cyanophenyl)-5-(4″-cyanoethyl-2″,6″-dimethylphenoxy)-4-[N-cyclopropylformamido]-1,2-phenylenediamine]	–	1.33 nM	> 3760	> 5000 nM	–

The next lines start with results.

melting point	EC50 (NL4-3 virus; [6])	SMILES	selectivity ratio at 2 days [1]	CC50 at 4 d [2]	also measured
–	1.39 nM	Cc1cc(CCC#N)cc(C)c1Oc1cc(Nc2ccc(C#N)cc2)c(N)cc1C(N)=O [Compound 10, 4-carbamoyl-N^1-(4′-cyanophenyl)-5-(4″-cyanoethyl-2″,6″-dimethylphenoxy)-1,2-phenylenediamine]	> 6760	> 9400 nM	–
–	14.7 nM	CCCc1cc(C)c(Oc2ccc(N)c(Nc3ccc(C#N)cc3)n2)c(C)c1 [Compound 16, N^2-(4-cyanoanilinyl)-6-(2,6-dimethyl-4-propylphenoxy)-3-aminopyridine]	1120	16400 nM	–
–	10 nM	Cc1cc(CO)cc(C)c1Oc1cc(Nc2ccc(C#N)cc2)c(N)cc1CO [Compound 18, N^1-(4′-cyanophenyl)-5-(4″-hydroxymethyl-2″,6″-dimethylphenoxy)-4-hydroxymethyl-1,2-phenylenediamine]	> 1590	> 15900 nM	–
–	2.8 nM	N#CCCc1cc(F)c(Oc2ccc(N)c(Nc3ccc(C#N)cc3)n2)c(F)c1 [Compound 21, N^2-(4-cyanoanilinyl)-6-(2,6-difluoro-4-cyanoethyl-phenoxy)-3-aminopyridine]	> 3640	> 10200 nM	–
–	99 nM	COC(=O)CCc1cc(F)c(Oc2ccc(N)c(Nc3ccc(C#N)cc3)n2)c(F)c1 [Compound 23, N^2-(4-cyanoanilinyl)-6-(2,6-difluoro-4-methyl propionatephenoxy)-3-aminopyridine]	> 155	> 15300 nM	–
–	48 nM	N#Cc1ccc(Nc2nc(Oc3c(F)cc(CCCO)cc3F)ccc2N)cc1 [Compound 24, N^2-(4-cyanoanilinyl)-6-(2,6-difluoro-4-(3-hydroxypropyl)phenoxy)-3-aminopyridine]	> 525	> 25200 nM	–
–	25.7 nM	COc1cc(/C=C/C#N)cc(Br)c1Oc1ccc(N)c(Nc2ccc(C#N)cc2)n1 [Compound 26B]	1210	21300 nM	–
–	4.7 nM	CC(=O)CCc1cc(F)c(Oc2ccc(N)c(Nc3ccc(C#N)cc3)n2)c(F)c1 [Compound 30, N^2-(4-cyanoanilinyl)-6-(2,6-difluoro-4-(2-butanonyl)phenoxy)-3-aminopyridine]	> 2130	> 9800 nM	–
118 to 120 °C	6.1 nM	Cc1cc(CCC#N)cc(C)c1Oc1cc(Nc2ccc(C#N)cc2)c(N)cc1N [Compound 35, 5-(4″-cyanoethyl-2″,6″-dimethylphenoxy)-N^1-(4′-cyanophenyl)-4-amino-1,2,4-triaminobenzene]	> 820	> 5000 nM	–
–	2.18 nM	COCc1cc(N)c(Nc2ccc(C#N)cc2)cc1Oc1c(C)cc(CCC#N)cc1C [Compound 38, N^1-(4′-cyanophenyl)-5-(4″-cyanoethyl-2″,6″-dimethylphenoxy)-4-methoxymethyl-1,2-phenylenediamine]	> 2290	> 5000 nM	–
–	2.73 nM	Cc1cc(CCC#N)cc(C)c1Oc1cc(Nc2ccc(C#N)cc2)c(N)cc1CN(C)C [Compound 40, N^1-(4′-cyanophenyl)-5-(4″-cyanoethyl-2″,6″-dimethylphenoxy)-4-[N,N-dimethylaminomethyl]-1,2-phenylenediamine]	> 1830	> 5000 nM	–
–	4.63 nM	CCNC(=O)c1cc(N)c(Nc2ccc(C#N)cc2)cc1Oc1c(C)cc(CCC#N)cc1C [Compound 41]	> 1080	> 5000 nM	–
